Measurements as given in ChEMBL document CHEMBL1141254, “Daphnimacropodines A-D, alkaloids from Daphniphyllum macropodum” (J Nat Prod, 2007).
Calls of active or inactive are those of the source.

Assays:
Format in all cases: functional, cell-based
Platelet [1] = assay: Inhibition of AA-induced platelet aggregation
Platelet [2] = assay: Inhibition of PAF-induced platelet aggregation
Platelet [3] = assay: Inhibition of ADP-induced platelet aggregation

Measured: Activity

C[C@@H]1CN(C=O)[C@H]2[C@@H]1CC[C@]13COC(=O)CC[C@]21C1=CCC[C@@H]1CCC3=O
inactive: all assays above

COC(=O)CC[C@@]12C3=CCC[C@@H]3CC[C@@H]3CN4C[C@@H](C)C(CC[C@@]31CO)C42 (some centres not stated)
inactive: all assays above

C[C@@H]1CN(C=O)[C@H]2[C@@H]1CC[C@@]1(CO)C(=O)CC[C@H]3CCC=C3[C@@]21CCC(=O)O
inactive: all assays above

C[C@@H]1CN2C(=O)CC[C@@]34C5=CCC[C@@H]5CCC5[C@H](O)OC[C@]53CC[C@H]1[C@H]24 (some centres not stated)
inactive: all assays above
